Laboratory results taken from patent publication US11555042B2, “Macrocyclic compounds as TRK kinases inhibitors” (FOCHON BIOSCIENCES, LTD., priority 2018, dated 2023).

How the values were obtained:
Assay type in all cases: cell-based
[1] = target: T1, ETV6-TRKC-G623R (Homo sapiens, UniProt Q16288, G623R); experiment: Engineered Ba/F3 cell proliferation inhibition (MTS), ETV6-TRKC-G623R; settings: 72 h
T1 construct: fused on or other part: P41212 (Transcription factor ETV6)
Description: (§1) MTS testing kit was purchased from Promega (Madison, Wis., USA). The RPMI-1640, Fetal bovine serum and Penicillin-Streptomycin were purchased from Gibco (San Francisco, Calif., USA). Dimethyl sulfoxide (DMSO) and Puromycin were purchased from Sigma (St. Louis., Mo., USA). Mouse interleukin-3 (IL-3) was purchased from Cell signaling Technology (Boston, Mass., USA).
(§2) To investigate whether a compound is able to inhibit the activity of TRK fusion mutation in cells, a mechanism-based assay using engineered Ba/F3 cell lines stably overexpressing oncogenic rearrangement or gene mutation of TRK (TPM3-TRKA, TPM3-TRKA-G595R, AFAP1-TRKB, ETV6-TRKC and ETV6-TRKC-G623R) were developed. In this assay, inhibition of TRK fusion mutation was detected by the cell proliferation inhibition of engineered Ba/F3 cells. Engineered Ba/F3 cells were cultured in culture flasks to 40-80% confluence in RPMI-1640 supplemented with 10% fetal bovine serum, 2 ug/mL puromycin. Cells were collected and plated onto 96-well plates at desired cell density (Ba/F3-TPM3-TRKA: 3×10^4/mL, Ba/F3-TPM3-TRKA-G595R: 1×10^5/mL, Ba/F3-AFAP1-TRKB: 1×10^5/mL, Ba/F3-ETV6-TRKC: 3×10^4/mL, Ba/F3-ETV6-TRKC-G623R: 3×10^4/mL). Plates were incubated at 37° C., with 5% CO2 for 4 h. Compounds were then added to the plates with the final compound concentrations of 10000, 3333, 1111, […], 123, 41.2, 13.7, 4.6 and 1.5 nM. Plates were incubated at 37° C., with 5% CO2 for 72 h. A mixture of 20 μl MTS/100 μl medium were added to each well and the plates were incubated at 37° C., with 5% CO2 for exactly 2 h. The reaction was stopped by adding 25 μl of 10% SDS per well. The absorbance was measured at 490 nm and 650 nm (reference wavelength). IC50 was calculated using GraphPad Prism 5.0 software.

[2] = system: KM12 cells; experiment: KM12 cells proliferation inhibition (MTS), mechanism-based assay for TRK; settings: Homo sapiens, KM12, 72 h
Description: as §1
To investigate whether a compound is able to inhibit the activity of TRK in cells, a mechanism-based assay using KM12 cells was developed. In this assay, inhibition of TRK was detected by the inhibition of KM12 cells proliferation. KM12 cells were cultured in culture flasks to 40-80% confluence in RPMI-1640 plus 10% fetal bovine serum. Cells were collected and plated onto 96-well plates at 1000 cells/well. Plates were incubated at 37° C., with 5% CO2 for 4 h. Compounds were added to the plates, the final compound concentrations were […], 123.5, 41.2, 13.7, 4.6 and 1.5 nM. Place plates at 37° C., with 5% CO2 for KM12 cells 72 h. 20 μl MTS/100 μl medium mixture solution were added to each well and incubate the plates for exactly 2 h. Stop the reaction by adding 25 μl 10% SDS per well. Measure absorbance at 490 nm and 650 nm (reference wavelength). IC50 was calculated using GraphPad Prism 5.0.

[3] = target: T2, TPM3-TRKA-G595R (Homo sapiens, UniProt P04629, G595R); experiment: Engineered Ba/F3 cell proliferation inhibition (MTS), TPM3-TRKA-G595R; settings: 72 h
T2 construct: TPM3 (tropomyosin alpha-3, P06753) fusion partner; expressed in transfected cells; host or cells: Ba/F3; the other entry of the earlier key: TPM3 (P06753, Tropomyosin alpha-3 chain)
T2 sequence (P04629 510-796 G595R limits assumed): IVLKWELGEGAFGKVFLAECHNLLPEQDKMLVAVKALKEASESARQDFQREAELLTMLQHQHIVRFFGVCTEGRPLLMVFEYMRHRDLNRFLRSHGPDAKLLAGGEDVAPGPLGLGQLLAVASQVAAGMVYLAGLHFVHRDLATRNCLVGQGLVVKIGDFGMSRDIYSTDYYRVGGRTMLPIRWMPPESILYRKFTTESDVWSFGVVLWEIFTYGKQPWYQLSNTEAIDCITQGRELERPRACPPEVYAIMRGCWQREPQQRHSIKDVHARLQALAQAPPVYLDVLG
Description: as §1, §2

[4] = target: T3, TPM3-TRKA (Homo sapiens, UniProt P04629); experiment: Engineered Ba/F3 cell proliferation inhibition (MTS), TPM3-TRKA; settings: 72 h
T3 construct: TPM3 (tropomyosin alpha-3, P06753) fusion partner; expressed in transfected cells; host or cells: Ba/F3; the other entry of the earlier key: TPM3 (P06753, Tropomyosin alpha-3 chain)
T3 sequence (P04629 510-796 limits assumed): as the sequence (P04629 510-796 G595R limits assumed) above, with R86G counted along it
Description: as §1, §2

T1 sequence (Q16288 whole entry G623R, the tested form may be a part): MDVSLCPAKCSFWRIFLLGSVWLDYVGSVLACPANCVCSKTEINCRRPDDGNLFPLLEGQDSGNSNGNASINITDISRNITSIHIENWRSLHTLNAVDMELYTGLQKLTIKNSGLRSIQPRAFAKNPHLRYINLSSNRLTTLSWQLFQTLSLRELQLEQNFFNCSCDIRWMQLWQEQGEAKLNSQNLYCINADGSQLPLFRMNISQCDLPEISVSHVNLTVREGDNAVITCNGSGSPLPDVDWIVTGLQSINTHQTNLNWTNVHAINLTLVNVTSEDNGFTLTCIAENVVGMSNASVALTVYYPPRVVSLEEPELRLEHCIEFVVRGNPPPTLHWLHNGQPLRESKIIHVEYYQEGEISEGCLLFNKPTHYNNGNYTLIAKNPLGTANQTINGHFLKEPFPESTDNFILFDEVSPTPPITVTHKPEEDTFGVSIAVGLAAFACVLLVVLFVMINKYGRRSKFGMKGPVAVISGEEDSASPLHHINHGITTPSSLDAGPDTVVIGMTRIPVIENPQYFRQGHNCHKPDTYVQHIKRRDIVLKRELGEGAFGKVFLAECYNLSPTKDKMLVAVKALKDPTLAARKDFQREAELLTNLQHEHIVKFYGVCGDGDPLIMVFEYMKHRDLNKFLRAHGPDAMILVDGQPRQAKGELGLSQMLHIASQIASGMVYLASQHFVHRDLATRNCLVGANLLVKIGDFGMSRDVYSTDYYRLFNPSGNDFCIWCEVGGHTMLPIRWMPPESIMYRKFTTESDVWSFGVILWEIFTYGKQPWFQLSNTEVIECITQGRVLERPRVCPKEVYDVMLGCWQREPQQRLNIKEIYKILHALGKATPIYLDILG

Row | Compound | IC50 [1] | IC50 [2] | IC50 [3] | IC50 [4]
1 | CN1c2ccn3ncc(c3n2)C(=O)NC2(CC2)COc2ncc(F)cc2C12CC2 [Example 17, (3′E,4′E)-5′-fluoro-2′-methyldispiro[cyclopropane-1,3′-5-oxa-2,8-diaza-1(5,3)-pyrazolo[1,5-a]pyrimidina-4(3,2)-pyridinacyclononaphane-7′,1″-cyclopropan]-9′-one] | 1 nM | 1 nM | 5 nM | 1 nM
2 | C[C@@H]1CNC(=O)c2cnn3ccc(nc23)N2CC[C@H]3C[C@]32c2cc(F)ccc2O1 [Example 21, (1^3E,1^4E,2^1R,2^5S,5R)-3^5-fluoro-5-methyl-4-oxa-2^2,7-diaza-1(5,3)-pyrazolo[1,5-a]pyrimidina-2(2,1)-bicyclo[3.1.0]hexana-3(1,2)-benzenacyclooctaphan-8-one] | 1 nM | 1 nM | – | 1 nM
3 | O=C1NCCOc2ncc(F)cc2[C@@]23C[C@@H]2CCN3c2ccn3ncc1c3n2 [Example 23, (1^3E,1^4E,2^1R,2^5S)-35-fluoro-4-oxa-2^2,7-diaza-1(5,3)-pyrazolo[1,5-a]pyrimidina-3(3,2)-pyridina-2(2,1)-bicyclo[3.1.0]hexanacyclooctaphan-8-one] | 5 nM | 1 nM | 4 nM | 1 nM
4 | C[C@H]1COc2ncc(F)cc2[C@@]23C[C@@H]2CCN3c2ccn3ncc(c3n2)C(=O)N1 [Example 28, (1^3E,1^4E,2^1R,2^5S,6S)-3^5-fluoro-6-methyl-4-oxa-2^2,7-diaza-1(5,3)-pyrazolo[1,5-a]pyrimidina-3(3,2)-pyridina-2(2,1)-bicyclo[3.1.0]hexanacyclooctaphan-8-one] | 6 nM | 1 nM | – | 1 nM
5 | C[C@H]1CCc2ncc(F)cc2[C@@]23C[C@@H]2CCN3c2ccn3ncc(c3n2)C(=O)N1 [Example 30, (1^3E,1^4E,2^1R,2^5S,6S)-35-fluoro-6-methyl-2^2,7-diaza-1(5,3)-pyrazolo[1,5-a]pyrimidina-3(3,2)-pyridina-2(2,1)-bicyclo[3.1.0]hexana-cyclooctaphan-8-one] | 2 nM | 1 nM | – | 1 nM
6 | C[C@@H]1COc2ncc(F)cc2C2(CC2)N(C)c2ccc3ncc(n3n2)C(=O)N1 [Example 47, (7′R,E)-5′-fluoro-2′,7′-dimethylspiro-[cyclopropane-1,3′-5-oxa-2,8-diaza-1(6,3)-imidazo[1,2-b]pyridazina-4(3,2)-pyridina-cyclononaphan]-9′-one] | 23 nM | 2 nM | 26 nM | –
7 | C[C@@H]1COc2ncc(F)cc2C2(CC2)N(C)c2ccn3ncc(c3n2)C(=O)N1 [Example 48, (R,3′E,4′E)-5′-fluoro-2′,7′-dimethylspiro-[cyclopropane-1,3′-5-oxa-2,8-diaza-1(5,3)-pyrazolo[1,5-a]pyrimidina-4(3,2)-pyridina-cyclononaphan]-9′-one] | 12 nM | 2 nM | 14 nM | –
8 | C[C@@H]1CCc2ncc(F)cc2C2(CC2)N(C)c2ccn3ncc(c3n2)C(=O)N1 [Example 51, (R,3′E,4′E)-5′-fluoro-2′,7′-dimethylspiro-[cyclopropane-1,3′-2,8-diaza-1(5,3)-pyrazolo[1,5-a]pyrimidina-4(3,2)-pyridina-cyclononaphan]-9′-one] | 44 nM | 3 nM | 72 nM | –
9 | CN1c2ccn3ncc(c3n2)C(=O)NCCOc2ccc(F)cc2C12CC2 [Example 54, (3′E,4′E)-5′-fluoro-2′-methylspiro-[cyclopropane-1,3′-5-oxa-2,8-diaza-1(5,3)-pyrazolo[1,5-a]pyrimidina-4(1,2)-benzenacyclononaphan]-9′-one] | 62 nM | 9 nM | – | 13 nM
10 | CCN1c2ccn3ncc(c3n2)C(=O)N[C@H](C)COc2ccc(F)cc2C12CC2 [Example 59, (R,3′E,4′E)-2′-ethyl-5′-fluoro-7′-methyl-spiro[cyclopropane-1,3′-5-oxa-2,8-diaza-1(5,3)-pyrazolo[1,5-a]pyrimidina-4(1,2)-benzenacyclononaphan]-9′-one] | – | 1 nM | – | 17 nM
11 | CCN1c2ccn3ncc(c3n2)C(=O)NC[C@H](C)Oc2ncc(F)cc2C12CC2 [Example 62, (S,3′E,4′E)-2′-ethyl-5′-fluoro-6′-methylspiro [cyclopropane-1,3′-5-oxa-2,8-diaza-1(5,3)-pyrazolo[1,5-a]pyrimidina-4(3,2)-pyridinacyclononphan]-9′-one] | – | 13 nM | – | 46 nM
12 | CCN1c2ccn3ncc(c3n2)C(=O)N[C@H](C)COc2ncc(F)cc2C12CC2 [Example 64, (R,3′E,4′E)-2′-ethyl-5′-fluoro-7′-methylspiro [cyclopropane-1,3′-5-oxa-2,8-diaza-1(5,3)-pyrazolo[1,5-a]pyrimidina-4(3,2)-pyridinacyclononaphan]-9′-one] | 68 nM | 2 nM | – | 6 nM
13 | O=C1NCCCOc2ncc(F)cc2C2(CC2)Nc2ccn3ncc1c3n2 [Example 67, (3′E,4′E)-5′-fluorospiro[cyclopropane-1,3′-5-oxa-2,9-diaza-1(5,3)-pyrazolo[1,5-a]pyrimidina-4(3,2)-pyridinacyclodecaphan]-10′-one] | – | 10 nM | – | 23 nM
14 | CN1c2ccn3ncc(c3n2)C(=O)NC2(CC2)COc2ccc(F)cc2C12CC2 [Example 69, (3′E,4′E)-5′-fluoro-2′-methyldispiro-[cyclopropane-1,3′-5-oxa-2,8-diaza-1(5,3)-pyrazolo[1,5-a]pyrimidina-4(1,2)-benzenacyclononaphane-7′,1″-cyclopropan]-9′-one] | 4 nM | 1 nM | 1 nM | –
15 | O=C1NCCCc2ccc(F)cc2[C@@]23C[C@@H]2CCN3c2ccn3ncc1c3n2 [Example 71, (1^3E,1^4E,2^1R,2^5S)-3^5-fluoro-2^2,7-diaza-1(5,3)-pyrazolo[1,5-a]pyrimidina-2(2,1)-bicyclo[3.1.0]hexana-3(1,2)-benzenacyclo-octaphan-8-one] | 1 nM | 1 nM | 1 nM | –
16 | O=C1NC2(CCc3ncc(F)cc3[C@@]34C[C@@H]3CCN4c3ccn4ncc1c4n3)CC2 [Example 77, (1′R,3′E,4′E,5′S)-5′-fluorospiro-[cyclopropane-1,6′-2^2,7-diaza-1(5,3)-pyrazolo[1,5-a]pyrimidina-3(3,2)-pyridina-2(2,1)-bicyclo[3.1.0]hexanacyclooctaphan]-8′-one] | 1 nM | 1 nM | 1 nM | –
17 | O=C1NC2(CCc3ncc(F)cc3[C@@]34C[C@@H]3CCN4c3ccc4ncc1n4n3)CC2 [Example 78, (1′R,5′S,E)-5′fluorospiro[cyclopropane-1,6′-2^2,7-diaza-1(6,3)-imidazo[1,2-b]pyridazina-3(3,2)-pyridina-2(2,1)-bicyclo [3.1.0]hexanacyclooctaphan]-8′-one] | 1 nM | 1 nM | 3 nM | –
18 | CN1c2ccn3ncc(c3n2)C(=O)NC2(CC2)CSc2ncc(F)cc2C12CC2 [Example 86, (3′E,4′E)-5′-fluoro-2′-methyldispiro-[cyclopropane-1,3′-5-thia-2,8-diaza-1(5,3)-pyrazolo[1,5-a]pyrimidina-4(3,2)-pyridina-cyclononaphane-7′,1″-cyclopropan]-9′-one] | 1 nM | 1 nM | 1 nM | –
